Reference: patent publication US20050079604A1, “Method for improving functionality of tissue constructs” (priority 2001, published 2005)

Tests used:
[1] = system: reconstructed human vascular media (RHVM); experiment: Contraction of RHVM rings in response to cumulative doses of histamine (myograph, isometric tension); format: cell-based; conditions: 21 days of maturation, FIG. 9
Experimental: (§1) Reconstructed human vascular media (RHVM) were prepared for the control tissue construct (not aligned) as described in Example I. The RHVM used for this example were treated as follow: RHVM cultured in medium described above represent the control condition (non-treated RHVM) and RHVM supplemented with cell proliferation inhibitors, heparin or olomoucine (treated RHVM).
To assess the contractile function of RHVM which were treated or not (control condition), RHVM rings of 5-7 mm in length were removed from the tubular support used for culture after 21 days of maturation. Rings were mounted in a myograph and challenged in the presence of cumulative doses of histamine, a vasoactive agent. Isometric tension generated by RHVM contraction was directly recorded via a force transducer (Kilster-Morse, DSG BE4).

[2] = system: smooth muscle cells present in reconstructed human vascular media; experiment: Immunolabeled differentiation markers of smooth muscle cells in RHVM; format: cell-based; conditions: FIG. 10
Experimental: as §1

heparin
contraction of RHVM cultured with the cell proliferation inhibitor vs control RHVM ([1]; higher doses of histamine, 10^−5 and 10^−4 M): significantly greater contraction
contraction of RHVM cultured with the cell proliferation inhibitor vs non-treated RHVM ([1]; low dose of histamine (10^−6 M)): no significant difference of contraction
expression of differentiation markers in cells cultured with the inhibitor vs without [2]: increased
